{"source": "PubChem BioAssay AID1259411", "about": "(Chemical Carcinogenesis Research Information System (CCRIS), 2018)", "system": "rodent carcinogenicity bioassays, tumor incidence", "test": "CCRIS carcinogenicity studies", "conditions": "Dose: 0", "how_it_was_run": "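Archive of carcinogenicity, mutagenicity, tumor promotion and tumor inhibition results drawn from journals, NCI reports and other sources, expert-reviewed; covers 1985-2011 and is no longer updated.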", "note": "Calls of active or inactive are those of the source. The rule behind the calls is not given here.", "data": [{"smiles": "CN1CCN(N=O)CC1", "values": [{"measurement": "carcinogen call", "setting": "Species: RAT, Strain/Sex: SPRAGUE-DAWLEY/FEMALE, Route: INHALATION, 2.4 PPM 14.5 HR/D FOR 74 D OVER 7.5 MONTHS (STUDY DURATION: 350 D), Tumor Site: Type of Lesion: NASAL CAVITY: TUMOR", "result": "active; positive"}]}, {"smiles": "C1=CC2OC2C=C1", "note": "(centres undefined)", "values": [{"measurement": "carcinogen call", "setting": "Species: MOUSE, Strain/Sex: SWISS/FEMALE, Route: INTRAPERITONEAL, 7.4, 18.6 UMOL ADMINISTERED AS 3 UNEQUAL DOSES (1/7, 2/7, AND 4/7 OF THE TOTAL DOSE) OVER A 2-WK PERIOD (STUDY DURATI, 7.4, 18.6 UMOL ADMINISTERED AS 3 UNEQUAL DOSES (1/7, 2/7, AND 4/7 OF THE TOTAL DOSE) OVER A 2-WK PERIOD (STUDY DURATI", "result": "inactive; negative"}, {"measurement": "carcinogen call", "setting": "Species: MOUSE, Strain/Sex: SWISS/MALE, Route: INTRAPERITONEAL, 7.4, 18.6 UMOL ADMINISTERED AS 3 UNEQUAL DOSES (1/7, 2/7, AND 4/7 OF THE TOTAL DOSE) OVER A 2-WK PERIOD (STUDY DURATI, 7.4, 18.6 UMOL ADMINISTERED AS 3 UNEQUAL DOSES (1/7, 2/7, AND 4/7 OF THE TOTAL DOSE) OVER A 2-WK PERIOD (STUDY DURATI", "result": "inactive; negative"}]}, {"smiles": "CN(C)c1ccc(C(=C2C=CC(=[N+](C)C)C=C2)c2ccc(N(C)C)cc2)cc1", "values": [{"measurement": "carcinogen call", "setting": "Species: MOUSE, Strain/Sex: B6C3F1/FEMALE, Route: ORAL, 100, 300, 600 PPM IN DIET FOR 104 WK (STUDY DURATION: 2 YR), 100, 300, 600 PPM IN DIET FOR 104 WK (STUDY DURATION: 2 YR), Tumor Site: Type of Lesion: LIVER: MALIGNANT NEOPLASM, HARDERIAN GLAND: ADENOMA, UTERUS: TYPE-A RETICULUM CELL SARCOMA, OVARIES: TYPE-A RETICULUM CE, Tumor Site: Type of Lesion: LIVER: MALIGNANT NEOPLASM, HARDERIAN GLAND: ADENOMA, UTERUS: TYPE-A RETICULUM CELL SARCOMA, OVARIES: TYPE-A RETICULUM CE", "result": "active; positive"}, {"measurement": "carcinogen call", "setting": "Species: MOUSE, Strain/Sex: B6C3F1/MALE, Route: ORAL, 100, 300, 600 PPM IN DIET FOR 104 WK (STUDY DURATION: 2 YR), 100, 300, 600 PPM IN DIET FOR 104 WK (STUDY DURATION: 2 YR), Tumor Site: Type of Lesion: LIVER: MALIGNANT NEOPLASM, HARDERIAN GLAND: ADENOMA", "result": "active; positive"}, {"measurement": "carcinogen call", "setting": "Species: RAT, Strain/Sex: F344/FEMALE, Route: ORAL, 100, 300, 600 PPM IN FEED FOR 24 MO (STUDY DURATION: 24 MO), 100, 300, 600 PPM IN FEED FOR 24 MO (STUDY DURATION: 24 MO), Tumor Site: Type of Lesion: LIVER: HEPATOCELLULAR ADENOMA, THYROID GLAND: FOLLICULAR CELL ADENOCARCINOMA", "result": "active; positive"}, {"measurement": "carcinogen call", "setting": "Species: RAT, Strain/Sex: F344/MALE, Route: ORAL, 100, 300, 600 PPM IN FEED FOR 24 MO (STUDY DURATION: 24 MO), 100, 300, 600 PPM IN FEED FOR 24 MO (STUDY DURATION: 24 MO), Tumor Site: Type of Lesion: LIVER: HEPATOCELLULAR ADENOMA, THYROID GLAND: FOLLICULAR CELL ADENOCARCINOMA", "result": "active; positive"}]}, {"smiles": "COC(=O)c1cc(Oc2ccc(Cl)cc2Cl)ccc1[N+](=O)[O-]", "values": [{"measurement": "carcinogen call", "setting": "Species: Mouse, Strain/Sex: B6C3F1/Female (60/sex/group), Route: Oral, 50, 200, 1000 ppm in feed for 24 mo, 50, 200, 1000 ppm in feed for 24 mo", "result": "inactive; negative; purity 98.3%"}, {"measurement": "carcinogen call", "setting": "Species: Mouse, Strain/Sex: B6C3F1/Male (60/sex/group), Route: Oral, 50, 200, 1000 ppm in feed for 24 mo, 50, 200, 1000 ppm in feed for 24 mo, Tumor Site: Type of Lesion: Liver: Significant increase in hepatic adenomas and carcinomas at highest dose", "result": "active; positive; purity 98.3%"}, {"measurement": "carcinogen call", "setting": "Species: Rat, Strain/Sex: Sprague-Dawley/Female (50/sex/group), Route: Oral, 500, 1580, 5000 ppm in feed for 104 wk, 500, 1580, 5000 ppm in feed for 104 wk", "result": "inactive; negative; purity 98%"}, {"measurement": "carcinogen call", "setting": "Species: Rat, Strain/Sex: Sprague-Dawley/Male (50/sex/group), Route: Oral, 500, 1580, 5000 ppm in feed for 104 wk, 500, 1580, 5000 ppm in feed for 104 wk", "result": "inactive; negative; purity 98%"}]}, {"smiles": "ClC(Cl)C(Cl)Cl", "values": [{"measurement": "carcinogen call", "setting": "Species: MOUSE, Strain/Sex: B6C3F1/FEMALE, Route: GAVAGE, 142, 282 MG/KG N CORN OIL 5 D/WK FOR 78 WK (STUDY DURATION: 90 WK), 142, 282 MG/KG N CORN OIL 5 D/WK FOR 78 WK (STUDY DURATION: 90 WK), Tumor Site: Type of Lesion: LIVER: HEPATOCELLULAR CARCINOMA", "result": "active; positive"}, {"measurement": "carcinogen call", "setting": "Species: MOUSE, Strain/Sex: B6C3F1/MALE, Route: GAVAGE, 142, 282 MG/KG IN CORN OIL 5 D/WK FOR 78 WK (STUDY DURATION: 90 WK), 142, 282 MG/KG IN CORN OIL 5 D/WK FOR 78 WK (STUDY DURATION: 90 WK), Tumor Site: Type of Lesion: LIVER: HEPATOCELLULAR CARCINOMA", "result": "active; positive"}, {"measurement": "carcinogen call", "setting": "Species: RAT, Strain/Sex: OSBORNE-MENDEL/FEMALE, Route: GAVAGE, 43, 76 MG/KG IN CORN OIL 5 D/WK FOR 78 WK (STUDY DURATION: 110 WK), 43, 76 MG/KG IN CORN OIL 5 D/WK FOR 78 WK (STUDY DURATION: 110 WK)", "result": "inactive; negative"}, {"measurement": "carcinogen call", "setting": "Species: RAT, Strain/Sex: OSBORNE-MENDEL/MALE, Route: GAVAGE, 62, 108 MG/KG IN CORN OIL 5 D/WK FOR 78 WK (STUDY DURATION: 110 WK), 62, 108 MG/KG IN CORN OIL 5 D/WK FOR 78 WK (STUDY DURATION: 110 WK), Tumor Site: Type of Lesion: LIVER: NEOPLASTIC NODULE, HEPATOCELLULAR CARCINOMA", "result": "equivocal"}]}, {"smiles": "O=C(O)[C@@H](O)[C@@H](O)[C@H](O)[C@@H](O)C(=O)[O-].O=C(O)[C@@H](O)[C@@H](O)[C@H](O)[C@@H](O)C(=O)[O-].O=C(O)[C@@H](O)[C@@H](O)[C@H](O)[C@@H](O)C(=O)[O-].[Fe+3]", "values": [{"measurement": "carcinogen call", "setting": "Species: RAT, Strain/Sex: WISTAR/MALE, Route: INTRAPERITONEAL, 5 MG/KG IN GLUCOSE SOLUTION 1/D 6 D/WK FOR 3 MO (STUDY DURATION: 1 YR, 3 MO), Tumor Site: Type of Lesion: PERITONEAL CAVITY: MESOTHELIOMA", "result": "active; positive"}]}, {"smiles": "C[C@]12CC[C@@H]3c4ccc(O)cc4CC[C@H]3[C@@H]1CC[C@H]2O", "values": [{"measurement": "carcinogen call", "setting": "Species: HAMSTER, Strain/Sex: SYRIAN/MALE, Route: SUBCUTANEOUS IMPLANT, 20 MG IN PELLETS IMPLANTED EVERY 2.5 MO FOR 9 MO (STUDY DURATION: 9 MO)", "result": "inactive; negative"}]}, {"smiles": "O=[N+]([O-])c1ccc2ccc3c4ccccc4ccc3c2c1", "values": [{"measurement": "carcinogen call", "setting": "Species: MOUSE, Strain/Sex: ICR/FEMALE, Route: INTRAPERITONEAL, 100 NMOL (TOTAL DOSE) ADMINISTERED IN 3 SUBDOSES OF 1/7, 2/7, AND 4/7 ON DAYS 1, 8 AND 15 OF LIFE, RESPECTIVELY (STUD", "result": "inactive; negative"}, {"measurement": "carcinogen call", "setting": "Species: MOUSE, Strain/Sex: ICR/MALE, Route: INTRAPERITONEAL, 100 NMOL (TOTAL DOSE) ADMINISTERED IN 3 SUBDOSES OF 1/7, 2/7, AND 4/7 ON DAYS 1, 8 AND 15 OF LIFE, RESPECTIVELY (STUD", "result": "inactive; negative"}]}, {"smiles": "CNC(=O)Oc1cccc2ccccc12", "values": [{"measurement": "carcinogen call", "setting": "Species: MOUSE, Strain/Sex: SWISS/FEMALE, Route: DERMAL, 100 MG/KG IN 100 µL ACETONE 3/WK FOR 52 WK (STUDY DURATION: 52 WK)", "result": "inactive; negative"}, {"measurement": "carcinogen call", "setting": "Species: Mouse, Strain/Sex: CD-1/Female (70/group), Route: Oral, 100, 1,000, 8,000 ppm in feed for 104 wk, 100, 1,000, 8,000 ppm in feed for 104 wk, Tumor Site: Type of Lesion: BLOOD VESSELS: Hemangiosarcoma and hemangioma (high dose only). LIVER: Hepatocellular adenoma and carcinoma (high dose o", "result": "active; positive (purity 99.3%; study details not given in source; mtd may have been exc"}, {"measurement": "carcinogen call", "setting": "Species: Mouse, Strain/Sex: CD-1/Male (70/group), Route: Oral, 100, 1,000, 8,000 ppm in feed for 104 wk, 100, 1,000, 8,000 ppm in feed for 104 wk, Tumor Site: Type of Lesion: BLOOD VESSELS: Hemangiosarcoma and hemangioma (all doses). KIDNEY: Renal tubular cell adenoma and carcinoma (high dose o", "result": "active; positive (purity 99.3%; study details not given in source; neoplastic lesions co"}, {"measurement": "carcinogen call", "setting": "Species: RAT, Strain/Sex: SWISS, Route: GAVAGE, 30 MG/KG BW, 1/D FOR UP TO 22 MO, Tumor Site: Type of Lesion: INTESTINES: FIBROSARCOMA, BONE: OSTEOSARCOMA", "result": "active; positive"}, {"measurement": "carcinogen call", "setting": "Species: Rat, Strain/Sex: Sprague-Dawley/Male (50/control and high-dose group and 40 per low-and mid-dose group), Route: Oral, 250, 1,500, 7,500 ppm in feed for 104 wk, 250, 1,500, 7,500 ppm in feed for 104 wk, Tumor Site: Type of Lesion: URINARY BLADDER: papilloma and carcinoma at highest dose. KIDNEY: one transitional cell carcinoma. LIVER: adenoma. THYRO", "result": "active; positive at the high dose level (purity 99%; study details not given in source)"}]}]}
